Experiments:
[1] = tested on: HEp-2 cells; assay type: cell-based, Human
Experimental: HEp-2 cells were seeded in 96-wells plates in the presence of APHS for 4, 5 and 6 days. Concentrations of HEp-2 cells were determined by microscopic observation in order to have a confluent monolayer at the day of measurement. Afterwards a cellular viability assay was performed on these cells.

[2] = tested on: several HIV-1 strains (macrophage-tropic and/or lymphocytotropic); assay: HIV-1 replication in primary cells (summary over strains and cell types); assay type: cell-based; conditions: Human immunodeficiency virus 1, read-out: 50% inhibitory concentration values
Experimental: (§1) To correct for the input virus, an extra control consisting of medium containing the same amount of input virus as added to the cells was included in the experiment. The amount of p24 in this control was subsequently subtracted from the p24 values of the samples in order to obtain the exact amount of p24 produced by the cells. p24-core antigen quantification by ELISA After 2 or 7 days incubation, samples of the supernatants were collected, inactivated by addition of Empigen (Calbiochem, La Jolla, CA, USA) and by heat inactivation at 56°C for 30 min. p24-core antigen concentration was determined by an enzyme linked immunoabsorbent assay (ELISA) (AMPAK™, DAKO, Cambridgeshire, UK) as described previously ^18,19. The optical density values were converted into p24 concentration (ng/ml) with the use of a calibration curve made by serial dilutions of recombinant p24 protein (NIBSC, UK) that was submitted to the same treatment as the samples.

[3] = tested on: 41+215Y; assay: Drug susceptibility assay (cell-killing MTT assay) in MT-2 cells; conditions: AZT-resistant strain 41+215Y, 5 days
Experimental: (§2) The cells were maintained at 37°C, 5% CO2. One day prior to the experiments, the cells were passaged 1:1 in a concentration of 1 × 10^6 cells/ml.
(§3) The genes that contain the drug resistance mutations are excised from the clinical isolates and cloned into the genetic background of HXB2. Thus all tested HIV-1 strains have the same genetic background. […] This strain contains an insertion of two a.a. between codons 68 and 69 of RT as well as an a.a. change at codon 67.
(§4) After 5 days of incubation a cellular viability assay was performed as described above. In this case, the amount of formazan reflects the number of cells protected by the drug against killing by the virus and is used as a read out for drug susceptibility.

[4] = tested on: HIV-1HXB2; assay: HIV-1 infection of PBL, p24-core antigen ELISA; assay type: cell-based; conditions: Human immunodeficiency virus 1, 168 h; PBL infected with HIV-1HXB2, p24 antigen after 7 days
Experimental: as §1

[5] = tested on: 4602; assay: Drug susceptibility assay (cell-killing MTT assay) in MT-2 cells; conditions: Human immunodeficiency virus 1, MT2, 120 h
Experimental: as §2, §3, §4

[6] = tested on: HIV-1Ba-L; assay: HIV-1 infection of monocyte-derived macrophages (MDM), p24-core antigen ELISA; assay type: cell-based; conditions: Human immunodeficiency virus 1, Macrophage, 168 h; MDM infected with HIV-1Ba-L, p24 antigen after 7 days
Experimental: as §1

[7] = target: HIV-1 RT (Human immunodeficiency virus type 1 group M subtype B, UniProt P04585); assay: Cell-free RT assay (primer extension); assay type: biochemical
Experimental: The HIV-1 RNA template (positions +1 to +368, with +1 being the capped G residue) was synthesized in vitro with T7 RNA polymerase as described previously ^27. In the reverse transcription assay, 10 ng of the RNA template was incubated with 1.5 µg calf liver tRNA ([…] total tRNA, of which approximately 1.2 pmol tRNA^lys3, Boehringer) or 20 ng of a DNA primer complementary to the primer binding site (PBS) (positions +182 to +202) in 12 µl annealing buffer (83 mM Tris-HCl pH 7.5, 125 mM KCl) at 85 °C for 2 min and 65 °C for 10 min, followed by cooling to room temperature over a 1h period. Reverse transcription was initiated by the addition of 6 µl RT buffer (9 mM MgCl2, 30 mM DTT, 150 µg/ml actinomycine D, 30 µM dATP, dGTP and dTTP and 1.5 µM dCTP), 0.5 µl [α-^32P]dCTP and 0.5 U HIV-1 RT (MRC) in the presence or absence of APHS (10, 30, 300 and 1000 µM) or 10% ethanol. The reaction was incubated for 30 min at 37 °C. The cDNA product was precipitated in 0.3 M sodiumacetate, pH 5.2 and 80% ethanol at-20°C, dissolved in formamide loading buffer and analyzed on a denaturing 6% polyacrylamide-urea sequencing gel.

With `CCCCC#CCSc1ccccc1OC(C)=O` [APHS, o-(acetoxyphenyl)hept-2-ynyl sulfide] the “cellular viability significantly decreased at concentrations above” value [1] was “above 10 µM”, the “cytotoxicity for HEp-2 cells” value [1] was “not cytotoxic” and the IC50 [2] was ~10 µM. For the same compound, the IC50 [3] was 2.1 ± 1 µM, the IC50 ([3]; Human immunodeficiency virus 1, MT2, 120 h) was 2 µM and the IC50 [4] was 12 µM. For the same compound, the IC50 [5] was 5 µM, the IC50 [6] was 12 µM and the “RT activity in the primer extension assay” value [7] was “no inhibition of RT activity”. The “amount of reverse transcription product” value ([7]; 1000 µM APHS, effect probably due to the ethanol in the sample) was “decreased the amount of reverse transcription product” and the “cDNA formation” value ([7]; APHS 10 to 300 µM) was “did not affect cDNA formation”.

From EP1452605A1, “Method for determining antiviral activity” (Universiteit Utrecht Holding B.V., priority 2003, dated 2004)
